The supplement of paper PMC11451515

Experiments:
Details in all cases: 48 h
NOMO1 [1] = test: cell viability relative to DMSO control; higher = less cytotoxic
Method in brief: (§1)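 Three leukemia lines were tested: NOMO1 and SEM at 500 cells/well and P12-Ichikawa at 1000 cells/well. Each was adapted for at least four passages in each medium and seeded in 5 μl in 1536-well plates, and library compounds in DMSO were pin-dosed from 47 μM to 0.79 nM in 11 threefold steps. After 48 h at 37°C, CellTiter-Glo One luminescence was read. Viability is a percentage relative to DMSO wells on each plate, with cell-free wells as background.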

P12-Ichikawa [2] = test: as above
Method in brief: as §1

SEM cells [3] = test: as above
Method in brief: as §1

NOMO1 [4] = test: AUC of viability dose-response curve (% viability x log10 dose units); higher = less sensitive
Method in brief: (§2)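 Library compounds in DMSO were applied for 48 h at 37°C at 11 threefold doses (47 μM to 0.79 nM) to medium-adapted leukemia cells in 1536-well plates holding 500 or 1000 cells/well. Luminescence from CellTiter-Glo One was normalised plate by plate against DMSO and cell-free wells. Area under the curve came from trapezoidal integration of a log-logistic fit, after scaling curves that rose above full viability and discarding those that failed quality control. The fit had four parameters and used log10 doses.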

P12-Ichikawa [5] = test: as above
Method in brief: as §2

SEM cells [6] = test: as above
Method in brief: as §2

NC(=O)Nc1cc(-c2ccc(CN3CCOCC3)cc2)sc1C(N)=O
cell viability [%]
Details | NOMO1 [1] | P12-Ichikawa [2] | SEM cells [3]
HPLM + 10% dialyzed FBS, 0.000781 µM | 122 | 121 | 103
HPLM + 10% dialyzed FBS, 0.00234 µM | 112 | 119 | 113
HPLM + 10% dialyzed FBS, 0.00702 µM | 121 | 126 | 106
HPLM + 10% dialyzed FBS, 0.0211 µM | 132 | 117 | 108
HPLM + 10% dialyzed FBS, 0.0632 µM | 113 | 110 | 103
HPLM + 10% dialyzed FBS, 0.19 µM | 68.3 | 19.7 | 32.9
HPLM + 10% dialyzed FBS, 0.569 µM | 71.7 | 8.91 | 33.3
HPLM + 10% dialyzed FBS, 1.71 µM | 91.5 | 8.7 | 22.2
HPLM + 10% dialyzed FBS, 5.12 µM | 84.6 | 7.42 | 12.9
HPLM + 10% dialyzed FBS, 15.4 µM | 74.9 | 7.74 | 11.5
HPLM + 10% dialyzed FBS, 46.1 µM | 48.4 | 17.1 | 8.44
RPMI 5 mM glucose + 10% FBS, 0.000781 µM | 100 | 104 | 118
RPMI 5 mM glucose + 10% FBS, 0.00234 µM | 113 | 107 | 120
RPMI 5 mM glucose + 10% FBS, 0.00702 µM | 126 | 110 | 133
RPMI 5 mM glucose + 10% FBS, 0.0211 µM | 101 | 111 | 116
RPMI 5 mM glucose + 10% FBS, 0.0632 µM | 97.6 | 94.9 | 111
RPMI 5 mM glucose + 10% FBS, 0.19 µM | 50 | 32.1 | 20.2
RPMI 5 mM glucose + 10% FBS, 0.569 µM | 50.8 | 11.5 | 19.9
RPMI 5 mM glucose + 10% FBS, 1.71 µM | 45.9 | 8.89 | 17.1
RPMI 5 mM glucose + 10% FBS, 5.12 µM | 52.1 | 8.7 | 10.8
RPMI 5 mM glucose + 10% FBS, 15.4 µM | 58.5 | 10 | 6.3
RPMI 5 mM glucose + 10% FBS, 46.1 µM | 49.6 | 18.6 | 6.6
RPMI 5 mM glucose + 10% dialyzed FBS, 0.000781 µM | 107 | 117 | 104
RPMI 5 mM glucose + 10% dialyzed FBS, 0.00234 µM | 99.3 | 114 | 110
RPMI 5 mM glucose + 10% dialyzed FBS, 0.00702 µM | 108 | 121 | 109
RPMI 5 mM glucose + 10% dialyzed FBS, 0.0211 µM | 108 | 115 | 108
RPMI 5 mM glucose + 10% dialyzed FBS, 0.0632 µM | 101 | 120 | 91.2
RPMI 5 mM glucose + 10% dialyzed FBS, 0.19 µM | 55.5 | 26.9 | 22.9
RPMI 5 mM glucose + 10% dialyzed FBS, 0.569 µM | 46.2 | 17.8 | 21.6
RPMI 5 mM glucose + 10% dialyzed FBS, 1.71 µM | 47.8 | 19.4 | 14.5
RPMI 5 mM glucose + 10% dialyzed FBS, 5.12 µM | 56 | 19 | 7.42
RPMI 5 mM glucose + 10% dialyzed FBS, 15.4 µM | 58.3 | 21.2 | 7.32
RPMI 5 mM glucose + 10% dialyzed FBS, 46.1 µM | 37.2 | 33.4 | 5.7

AUC of viability dose-response curve
Details | NOMO1 [4] | P12-Ichikawa [5] | SEM cells [6]
HPLM + 10% dialyzed FBS | 369 | 236 | 262
RPMI 5 mM glucose + 10% FBS | 331 | 246 | 240
RPMI 5 mM glucose + 10% dialyzed FBS | 338 | 266 | 240

NC(=O)c1cccc(N)c1
cell viability [%]
Details | NOMO1 [1] | P12-Ichikawa [2] | SEM cells [3]
HPLM + 10% dialyzed FBS, 0.000781 µM | 116 | 106 | 92.8
HPLM + 10% dialyzed FBS, 0.00234 µM | 107 | 105 | 104
HPLM + 10% dialyzed FBS, 0.00702 µM | 119 | 70.8 | 38.7
HPLM + 10% dialyzed FBS, 0.0211 µM | 114 | 116 | 112
HPLM + 10% dialyzed FBS, 0.0632 µM | 135 | 120 | 116
HPLM + 10% dialyzed FBS, 0.19 µM | 134 | 122 | 120
HPLM + 10% dialyzed FBS, 0.569 µM | 124 | 117 | 113
HPLM + 10% dialyzed FBS, 1.71 µM | 130 | 117 | 129
HPLM + 10% dialyzed FBS, 5.12 µM | 126 | 121 | 115
HPLM + 10% dialyzed FBS, 15.4 µM | 125 | 111 | 106
HPLM + 10% dialyzed FBS, 46.1 µM | 101 | 116 | 118
RPMI 5 mM glucose + 10% FBS, 0.000781 µM | 97 | 101 | 72.3
RPMI 5 mM glucose + 10% FBS, 0.00234 µM | 104 | 106 | 106
RPMI 5 mM glucose + 10% FBS, 0.00702 µM | 114 | 67.8 | 10.3
RPMI 5 mM glucose + 10% FBS, 0.0211 µM | 120 | 121 | 79.6
RPMI 5 mM glucose + 10% FBS, 0.0632 µM | 104 | 115 | 84.5
RPMI 5 mM glucose + 10% FBS, 0.19 µM | 123 | 124 | 97.8
RPMI 5 mM glucose + 10% FBS, 0.569 µM | 105 | 108 | 82.9
RPMI 5 mM glucose + 10% FBS, 1.71 µM | 97.8 | 117 | 85.5
RPMI 5 mM glucose + 10% FBS, 5.12 µM | 109 | 120 | 80.6
RPMI 5 mM glucose + 10% FBS, 15.4 µM | 113 | 117 | 104
RPMI 5 mM glucose + 10% FBS, 46.1 µM | 127 | 113 | 81.6
RPMI 5 mM glucose + 10% dialyzed FBS, 0.000781 µM | 102 | 101 | 79.9
RPMI 5 mM glucose + 10% dialyzed FBS, 0.00234 µM | 104 | 112 | 115
RPMI 5 mM glucose + 10% dialyzed FBS, 0.00702 µM | 114 | 78.1 | 27.4
RPMI 5 mM glucose + 10% dialyzed FBS, 0.0211 µM | 116 | 114 | 95.4
RPMI 5 mM glucose + 10% dialyzed FBS, 0.0632 µM | 109 | 115 | 102
RPMI 5 mM glucose + 10% dialyzed FBS, 0.19 µM | 133 | 115 | 98.2
RPMI 5 mM glucose + 10% dialyzed FBS, 0.569 µM | 116 | 124 | 105
RPMI 5 mM glucose + 10% dialyzed FBS, 1.71 µM | 110 | 120 | 94.4
RPMI 5 mM glucose + 10% dialyzed FBS, 5.12 µM | 112 | 115 | 96.3
RPMI 5 mM glucose + 10% dialyzed FBS, 15.4 µM | 106 | 120 | 117
RPMI 5 mM glucose + 10% dialyzed FBS, 46.1 µM | 115 | 120 | 99.4

AUC of viability dose-response curve
Details | NOMO1 [4] | P12-Ichikawa [5] | SEM cells [6]
HPLM + 10% dialyzed FBS | 471 | 452 | 436
RPMI 5 mM glucose + 10% FBS | 454 | 451 | 384
RPMI 5 mM glucose + 10% dialyzed FBS | 465 | 454 | 442
